Data set [1] has as its target SUDHL10. Put plainly: Induction of caspase-3/7 activity (Caspase-Glo 3/7), SUDHL10. The following applies: caspase-3/7 induction, SUDHL10 cells, 3 h treatment, median. It is filed as cell-based. The essentials:
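Apoptosis induction measured as caspase-3/7 activity (Caspase-Glo 3/7) in DLBCL lines after 3 h treatment at 37 °C; EC50 derived relative to the reference compound's maximal induction, with C0 fixed at 1.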

For data set [2], the system named is SUDHL5. Put plainly: Induction of cytotoxicity (CellTiter-Glo, 5 h), SUDHL5. In general terms: ATP-based viability assays read luminescence as a measure of living cells.
In the next data set the test system is A2780. Put plainly: Anti-proliferative effect (CellTiter-Glo, 72 h), A2780. It is filed as cell-based. The following applies: A2780 cells, median, read-out: IC50 antiproliferation assay A2780 [M] (median). Summed up:
(§1)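 After seeding, one plate is read right away by CellTiter-Glo luminescence to fix time zero. The treated plates stay at 37 °C in humidified air for 72 h and are then measured with the same reagent and 10 min incubation.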

Data set [3] deals with SUDHL10. Put plainly: Induction of cytotoxicity (CellTiter-Glo, 5 h), SUDHL10.
The subject of data set [4] is SUDHL5. Put plainly: Anti-proliferative effect (CellTiter-Glo, 72 h), SUDHL5. In kind it is cell-based. As to conditions: SUDHL5 cells, antiproliferation, 72 h incubation, median, read-out: Antiproli SUDHL5 [M] (median). Summed up: as §1
Data set [5] relates to SUDHL10. Kind of data set: Anti-proliferative effect (CellTiter-Glo, 72 h), SUDHL10. In kind it is cell-based. The following applies: SUDHL10 cells, antiproliferation, 72 h incubation, median, read-out: Antiproli SUDHL10 [M] (median). Summed up: as §1
A further data set concerns the target T1, BCL-XL (Homo sapiens, UniProt Q07817).
T1 construct: BCL-XL (amino acids 1-212, C-terminal fused to a hexahistidine (6×His) tag); purchased BPS Bioscience (San Diego, Calif., USA); host or cells: E. coli
Kind of data set: Protein-protein interaction assay BCL-XL/Bad BH3 peptide (BCL-XL assay), TR-FRET. It is filed as binding. As to conditions: His-BCL-XL / Bad BH3-derived peptide. The procedure:
Protein-Protein Interaction Assay: BCL-XL/Bad BH3 Peptide (BCL-XL Assay)
The dose-dependent inhibition by the compounds described in this invention of the interaction between […] and the BH3 domain of Bad (both human) was determined using a steady state binding competition assay with time-resolved fluorescence energy transfer (TR-FRET) readout. For that purpose BCL-2 (amino acids 1-211, C-terminal fused to a hexahistidine (6×His) tag (SEQ ID NO: 3) and a synthetic Bad BH3-derived peptide of sequence Biotin-PEG2-PEG2-NLWAAQRYGRELRR-NIe-SDEFVDSFKK-amide (SEQ ID NO: 2) served as protein receptor and tracer ligand respectively. The recombinant BCL-2 protein (expressed in E. coli) was purchased from BPS Bioscience (San Diego, Calif., USA). The Bad BH3-derived peptide can be obtained from e.g. Biosyntan (Berlin, Germany).
In the assay 11 different concentrations of each compound (0.1 nM, 0.33 nM, 1.1 nM, 3.8 nM, 13 nM, 44 nM, 0.15 μM, 0.51 μM, 1.7 μM, 5.9 μM and 20 μM) were typically measured as duplicates in the same microtiter plate. For that, 100-fold concentrated DMSO solutions were prepared by serial dilutions (1:3.4) of a 2 mM stock solution in a clear, 384-well microtiter plate (Greiner Bio-One, Frickenhausen, Germany). From there, 50 nl were transferred in a dark test plate (Greiner Bio-One. Frickenhausen, Germany). The assay was initiated by addition of 2 μl of a 2,5-fold concentrated Hs-BCL-XL solution (usually for a 1 nM end concentration in 5 μl reaction volume) in aqueous assay buffer [50 mM Tris/HCl pH 7, 100 mM sodium chloride (NaCl), 50 mM potassium fluoride (KF), 0.005% Tween-20, 2 mM DTT, 0.1% bovine gamma globulin (BGG)] to the compounds in the assay plate. This was followed by a 10-minute incubation step at 22° C. for pre-equilibration of the putative complex between His-BCL-XL and the compounds.
The mixture was incubated in the dark for one hour at 22° C. and then overnight at 4° C. The formation of BCL-XL/Bad complexes was determined by measuring the resonance energy transfer of the anti-His- Eu-cryptate antibody to the streptavidin-XL665 present in the reaction. For that purpose, the fluorescence emission at 620 nm and 665 nm after excitation at 330-350 nm was measured in a TR-FRET measuring instrument, for instance a Rubystar or a Pherastar (both from BMG Lab Technologies, Offenburg, Germany) or a Viewlux (Perkin-Elmer). The ratio of the emission at 665 nm and at 622 nm was used as indicator of the amount of BCL-XL/Bad complexes present.
The resulting data (ratio) were normalized, taking 0% inhibition as the mean value of control measurements (usually 32 data points) where all reagents were included. In this case 50 nl DMSO were used instead of compounds. A 100% inhibition corresponded to the mean value of control measurements (usually 32 data points) where all reagents except BCL-XL were included. IC50 values were determined by regression analysis based on a 4 parameter equation (minimum, maximum, IC50, Hill; Y=Max+(Min−Max)/(1+(X/IC50)^Hill) using the Screener Software (Genedata).
(In TR-FRET formats the signal depends on donor and acceptor labels being close together.)

[6] abbreviates: read-out: Cytotox SUDHL5 [M] (median), SUDHL5 cells, cytotoxicity induction, CellTiter-Glo, 5 h incubation, median.
Where [7] appears, read: read-out: Cytotox SUDHL10 [M] (median), SUDHL10 cells, cytotoxicity induction, CellTiter-Glo, 5 h incubation, median.
Setting [8] is: Homo sapiens, SU-DHL10, 5 h, read-out: Cytotox SUDHL10 [M] (median), SUDHL10 cells, cytotoxicity induction, CellTiter-Glo, 5 h incubation, median.

This passage reports EC50 and IC50 results from patent US10981932B2, “Macrocyclic indole derivatives” (Bayer Aktiengesellschaft, priority 2016, dated 2021).

The structures appear in SMILES notation. Where “and” joins values, the source holds several entries; their conditions need not be identical. Identical values can stand only once. Counter-ions that a name gives are not always drawn. Like-named read-outs stand apart in the source and are kept apart here.

T1 sequence (Q07817 1-212): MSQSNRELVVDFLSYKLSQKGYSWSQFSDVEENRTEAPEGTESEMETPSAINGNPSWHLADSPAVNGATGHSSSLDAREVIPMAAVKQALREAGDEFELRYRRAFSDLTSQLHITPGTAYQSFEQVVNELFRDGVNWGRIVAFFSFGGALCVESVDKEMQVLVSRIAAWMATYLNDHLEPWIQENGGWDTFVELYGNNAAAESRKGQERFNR

As a reminder, the EC50 is the concentration giving half of the maximal effect. `Cc1nn(C)c2c1-c1cccc3c(CCCOc4cccc5cc(F)ccc45)c(C(=O)O)n(c13)CCCOC2` (single isomer, unassigned; enantiomer 1) [Example 047, 1-{3-[(6-fluoronaphthalen-1-yl)oxy]propyl}-9,11-dimethyl-5,6,8,9-tetrahydro-4H-pyrazolo[4′,3′:8,9][1,5]oxazecino[7,6,5-hi]indole-2-carboxylic acid-N-ethylethanamine Salt (Enantiomer 1)] returned an EC50 on SUDHL10 [1] of 6.66 µM. In addition, the IC50 in the data set on SUDHL5 [2] (setting [6]) was 3.22e-06 M; in the data set on A2780 it was 2.69e-05 M; in the data set with SUDHL10 [3] (setting [7]), 6.49e-06 M; in the data set with SUDHL5 [4], 4.41e-06 M; in the data set on SUDHL10 [5], 3.61e-06 M; on BCL-XL it was over 20 µM.

`COCCn1nc2c(c1CN1CCOCC1)-c1cccc3c(CCCOc4cccc5ccccc45)c(C(=O)O)n(c13)CCCN(C)C2` (single isomer, unassigned; enantiomer 1) [Example 057, 10-(2-methoxyethyl)-7-methyl-11-(morpholin-4-ylmethyl)-1-[3-(naphthalen-1-yloxy)propyl]-4,5,6,7,8,10-hexahydropyrazolo[3′,4′:7,8][1,5]diazecino[9,10,1-hi]indole-2-carboxylic Acid (Enantiomer 1)] gave an EC50 in the data set on SUDHL10 [1] (Homo sapiens, SU-DHL10, 3 h) of 24.7 µM. Moreover, the IC50 in the data set on SUDHL5 [2] (Homo sapiens, SU-DHL-5, 5 h, read-out: Cytotox SUDHL5 [M] (median), SUDHL5 cells, cytotoxicity induction, CellTiter-Glo, 5 h incubation, median) was 2.5e-05 M; in the data set on A2780 (Homo sapiens, A2780, 72 h), 3.01e-05 M; in the data set on SUDHL10 [3] (setting [8]) it was 2.39e-05 M; in the data set with SUDHL5 [4] (Homo sapiens, SU-DHL-5, 72 h), 1.04e-05 M; in the data set with SUDHL10 [5] (Homo sapiens, SU-DHL10, 72 h) it was 1.21e-05 M; against BCL-XL, over 20 µM.

Compound `Cc1c2c(nn1CCN1CCOCC1)CN(C)CCCn1c(C(=O)O)c(CCCOc3cccc4ccccc34)c3cccc-2c31` (single isomer, unassigned; enantiomer 1) [Example 060, 7,11-dimethyl-10-[2-(morpholin-4-yl)ethyl]-1-[3-(naphthalen-1-yloxy)propyl]-4,5,6,7,8,10-hexahydropyrazolo[3′,4′:7,8][1,5]diazecino[9,10,1-hi]indole-2-carboxylic Acid (Enantiomer 1)] showed a 50% effective concentration (EC50) in the data set on SUDHL10 [1] of 8.54 µM. Besides, the IC50 in the data set with SUDHL5 [2] (setting [6]) was 4.3e-06 M; in the data set on A2780 (Homo sapiens, A2780, 72 h) it was 2.21e-05 M; with SUDHL10 [3] (setting [7]), 7.87e-06 M; with SUDHL5 [4], 1.79e-06 M; in the data set on SUDHL10 [5] (Homo sapiens, SU-DHL10, 72 h), 1.16e-05 M; against BCL-XL it was over 20 µM.

In the data set on SUDHL10 [1], `Cc1ccc2c(CCCOc3cccc4ccccc34)c(C(=O)O)n3c2c1-c1c(nn(C)c1C)CN(C)CCC3` (single isomer, unassigned; enantiomer 1) [Example 073, 7,10,11,12-tetramethyl-1-[3-(naphthalen-1-yloxy)propyl]-4,5,6,7,8,10-hexahydropyrazolo[3′,4′:7,8][1,5]diazecino[9,10,1-hi]indole-2-carboxylic Acid (Enantiomer 1)] displayed an EC50 of 2.94 µM. For the same compound, the IC50 in the data set with SUDHL5 [2] (setting [6]) is 1.79e-06 M; in the data set on A2780 (Homo sapiens, A2780, 72 h) it was 1.4e-05 M; in the data set with SUDHL10 [3] (setting [7]), 3.67e-06 M; in the data set on SUDHL5 [4], 3.23e-06 M; in the data set on SUDHL10 [5] (Homo sapiens, SU-DHL10, 72 h), 6.86e-06 M; against BCL-XL, over 20 µM.

As for `CCn1nc2c(c1C1CC1)-c1cccc3c(CCCOc4cccc5ccccc45)c(C(=O)O)n(c13)CCCCOC2` (single isomer, unassigned; enantiomer 1) [Example 082, 3-cyclopropyl-2-ethyl-7-[3-(naphthalen-1-yloxy)propyl]-2,10,11,12,13,15-hexahydropyrazolo[4′,3′:9,10][1,6]oxazacycloundecino[8,7,6-hi]indole-8-carboxylic acid-N-ethylethanamine Salt (Enantiomer 1)], it took 30.5 µM to reach a half-maximal effect with SUDHL10 [1] (Homo sapiens, SU-DHL10, 3 h) (EC50). The IC50 in the data set on SUDHL5 [2] (setting [6]) was 8.19e-06 M; in the data set with A2780 (Homo sapiens, A2780, 72 h), 1.68e-05 M; in the data set with SUDHL10 [3] (setting [8]), over 3.3e-05 M; in the data set on SUDHL5 [4] (Homo sapiens, SU-DHL-5, 72 h), 1.81e-05 M; with SUDHL10 [5] (Homo sapiens, SU-DHL10, 72 h), 7.79e-06 M; against BCL-XL it was over 20 µM.

Consider `COCCn1nc2c(c1C1CC1)-c1cccc3c(CCCOc4cccc5ccccc45)c(C(=O)O)n(c13)CCCCOC2` (single isomer, unassigned; enantiomer 1) [Example 085, 3-Cyclopropyl-2-(2-methoxyethyl)-7-[3-(naphthalen-1-yloxy)propyl]-2,10,11,12,13,15-hexahydropyrazolo[4′,3′:9,10][1,6]oxazacycloundecino[8,7,6-hi]indole-8-carboxylic acid-N-ethylethanamine Salt (Enantiomer 1)], for which, in the data set with SUDHL10 [1], the EC50 came to 15.5 µM. The IC50 is 3.91e-06 M in the data set with SUDHL5 [2] (setting [6]); 2.15e-05 M in the data set on A2780 (Homo sapiens, A2780, 72 h); 1.97e-05 M in the data set with SUDHL10 [3] (setting [8]); 6.22e-06 M in the data set with SUDHL5 [4]; 3.08e-06 M with SUDHL10 [5]; over 20 µM against BCL-XL.

In the data set on SUDHL10 [1], `Cc1c2c(nn1C1CC1)COCCCCn1c(C(=O)O)c(CCCOc3cccc4ccccc34)c3cccc-2c31` (single isomer, unassigned; enantiomer 1) [Example 093, 2-cyclopropyl-3-methyl-7-[3-(naphthalen-1-yloxy)propyl]-2,10,11,12,13,15-hexahydropyrazolo[4′,3′:9,10][1,6]oxazacycloundecino[8,7,6-hi]indole-8-carboxylic acid-N-ethylethanamine Salt (Enantiomer 1)] returned an EC50 of 6.64 µM. For the same compound, the IC50 was 2.1e-06 M in the data set with SUDHL5 [2] (setting [6]); 2.71e-05 M in the data set on A2780 (Homo sapiens, A2780, 72 h); 7.2e-06 M with SUDHL10 [3] (setting [7]); 3.38e-06 M in the data set with SUDHL5 [4]; 1.03e-05 M in the data set with SUDHL10 [5] (Homo sapiens, SU-DHL10, 72 h); over 20 µM at BCL-XL.

On to `COCCn1nc2c(c1C)-c1cccc3c(CCCOc4cccc5ccccc45)c(C(=O)O)n(c13)CCCCOC2` (single isomer, unassigned; enantiomer 1) [Example 107, 2-(2-methoxyethyl)-3-methyl-7-[3-(naphthalen-1-yloxy)propyl]-2,10,11,12,13,15-hexahydropyrazolo[4′,3′:9,10][1,6]oxazacycloundecino[8,7,6-hi]indole-8-carboxylic acid-N-ethylethanamine Salt (Enantiomer 1)], for which the EC50 in the data set with SUDHL10 [1] worked out at 4.91 µM. Besides, the IC50 with SUDHL5 [2] (setting [6]) was 1.73e-06 M; in the data set with A2780, > 3.3e-05 M and 2.08e-05 M; with SUDHL10 [3] (setting [7]) it was 4.65e-06 M; in the data set with SUDHL5 [4], 3.82e-06 M; with SUDHL10 [5], 5.32e-06 M; against BCL-XL, over 20 µM.
